According to patent publication US6426355B1, “Heterocyclic carboxamide-containing thiourea inhibitors of herpes viruses containing phenylenediamine group” (American Home Products, priority 1998, dated 2002):
In brackets after ≈: the same amount, converted by molar mass.

What was measured:
HSV-1 = assay: HSV Antiviral (ELISA) assay; type: cell-based; settings: for IC50 (ug/ml) HSV: HSV-1 in Vero cells; for IC50: Human alphaherpesvirus 1, HSV-1 in Vero cells, read-out: IC50 (ug/ml) HSV
How it was run: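 Vero cells in DMEM/2% FBS pretreated with compound 30 min before HSV-1 infection (MOI 0.006), then ~24 h at 37 °C. Viral gD detected by ELISA with β-galactosidase secondary and 4-methylumbelliferyl-galactoside (ex 365/em 450 nm); IC50 from fluorescence versus untreated infected cells.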

VZV strain Ellen = assay: VZV Antiviral (ELISA) assay; type: cell-based; settings: for IC50 (ug/ml) VZV / % inhibition 10 ug/ml VZV: VZV strain Ellen in HFF cells; for % inhibition 10 ug/ml VZV: at 10 ug/ml; for IC50: Human alphaherpesvirus 3, VZV strain Ellen in HFF cells, read-out: IC50 (ug/ml) VZV; for inhibition at 10 µg/mL: Human alphaherpesvirus 3, read-out: % inhibition 10 ug/ml VZV, at 10 ug/ml, VZV strain Ellen in HFF cells
How it was run: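 First, fibroblasts are infected at multiplicity below 0.1 and kept overnight. The harvested cell mixture then goes onto compound-containing wells for three days at 37° C. Finally, cells are fixed and viral gpII is measured by fluorogenic ELISA.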

[1] = tested on: HCMV recombinant mutant virus (RV145); assay: HCMV microtiter plate assay (beta-glucuronidase reporter); type: cell-based, Human Cytomegalovirus; settings: for IC50 (ug/ml) HCMV: HCMV in human foreskin fibroblasts; for IC50: Human betaherpesvirus 5, Fibroblast, read-out: IC50 (ug/ml) HCMV
How it was run: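 Human foreskin fibroblasts were infected with RV145 in the presence of inhibitor. β-glucuronidase under a viral promoter served as the replication marker. At 96 h post-infection, lysates in pH 7.0 phosphate with Triton X-100/sarkosyl were assayed colorimetrically or fluorometrically, and IC50 was estimated from varying inhibitor amounts.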

SMILES | IC50 (ug/ml) HSV (HSV-1) [µg/mL] | IC50 (ug/ml) VZV (VZV strain Ellen) [µg/mL] | % inhibition 10 ug/ml VZV (VZV strain Ellen) [%] | IC50 (ug/ml) HCMV [1] [µg/mL] | IC50 (HSV-1) [µg/mL] | IC50 (VZV strain Ellen) [µg/mL] | IC50 [1] [µg/mL] | inhibition at 10 µg/mL (VZV strain Ellen) [%]
O=C(Nc1ccc(NC(=S)NNc2cccc(Cl)c2)cc1)c1ccco1 [Example 528] | 3.2 (≈ 8.27 µM) | 5 (≈ 12.9 µM) | 107 | 0.25 (≈ 0.646 µM) | – | – | – | –
CCCCc1nc(C(=O)Nc2ccc(NC(=S)Nc3cc(C(F)(F)F)cc(C(F)(F)F)c3)cc2)cs1 [Example 1137, 2-Butyl-thiazole-4-carboxylic acid {4-[3-(3,5-bis-trifluoromethyl-phenyl)-thioureido]-phenyl}-amide] | – | – | – | – | > 10 | 3.5 (≈ 6.4 µM) | 0.6 (≈ 1.1 µM) | –
O=C(Nc1ccc(NC(=S)Nc2ccccc2)cc1)c1csnn1 [Example 912, [1,2,3]Thiadiazole-4-carboxylic acid [4-(3-phenyl-thioureido)-phenyl]-amide] | – | – | – | – | > 10 | > 10 | 0.16 (≈ 0.45 µM) | 0
O=C(Nc1ccc(NC(=S)NCc2ccc(N3CCCCC3)c(C(F)(F)F)c2)cc1)c1csnn1 [Example 601] | >10 | >10 | – | 0.0011 (≈ 0.00211 µM) | – | – | – | –
CCC(C)Cc1cc(NC(=S)Nc2ccc(NC(=O)c3csnn3)cc2)cc(C(F)(F)F)c1 (centres unmarked) [Example 556] | >10 | >7.5 | – | 0.006 (≈ 0.0122 µM) | – | – | – | –
Cc1cccc(NC(=S)Nc2ccc(NC(=O)c3ccco3)cc2)c1 [Example 436] | 10 (≈ 28.5 µM) | >10 | – | 0.15 (≈ 0.427 µM) | – | – | – | –
Nc1ccc(NC(=S)Nc2ccc(NC(=O)c3ccco3)cc2)cc1Cl [Example 421] | 8 (≈ 20.7 µM) | >10 | – | 0.75 (≈ 1.94 µM) | – | – | – | –
O=C(CN1CCCCC1)Nc1ccc(NC(=S)Nc2ccc(NC(=O)c3csnn3)cc2)cc1Cl [Example 391] | 8 (≈ 15.1 µM) | 6 (≈ 11.3 µM) | 97 | 0.019 (≈ 0.0358 µM) | – | – | – | –
CC(NC(=S)Nc1ccc(NC(=O)c2csnn2)cc1)c1ccc(F)cc1 (centres unmarked) [Example 565] | >10 | 0.22 (≈ 0.548 µM) | – | 0.01 (≈ 0.0249 µM) | – | – | – | –
CN1CCC(N(C)c2ccc(NC(=S)Nc3ccc(NC(=O)c4ccccn4)cc3)cc2Cl)CC1 [Example 376] | 3 (≈ 5.89 µM) | 7 (≈ 13.8 µM) | 83 | 0.8 (≈ 1.57 µM) | – | – | – | –
Cc1ccc(NC(=S)Nc2ccc(NC(=O)c3csnn3)cc2)cc1Cl [Example 230] | >10 | >10 | – | 0.015 (≈ 0.0371 µM) | – | – | – | –
O=C(Nc1ccc(NC(=S)Nc2ccc(Cl)c(C(F)(F)F)c2)cc1)c1csnn1 [Example 200] | >10 | >15 | 55 | 0.02 (≈ 0.0437 µM) | – | – | – | –
O=C(Nc1ccc(NC(=S)Nc2cccc([N+](=O)[O-])c2)cc1)c1ccco1 [Example 1008, Furan-2-carboxylic acid {4-[3-(3-nitro-phenyl)-thioureido]-phenyl} -amide] | – | – | – | – | > 10 | > 10 | 0.12 (≈ 0.314 µM) | 15
CN(C)c1ccc(NC(=S)Nc2ccc(NC(=O)c3ccccn3)cc2)cc1Cl [Example 350] | >10 | >10 | 50 | 1 (≈ 2.35 µM) | – | – | – | –
O=C(Nc1ccc(NC(=S)NCCc2cc(C(F)(F)F)ccc2F)cc1)c1csnn1 [Example 767] | >10 | 1 (≈ 2.13 µM) | – | 0.006 (≈ 0.0128 µM) | – | – | – | –
O=C(Nc1ccc(NC(=S)NCc2cc(C(F)(F)F)cc(C(F)(F)F)c2)cc1)c1csnn1 [Example 542] | >10 | >10 | – | 0.0011 (≈ 0.00218 µM) | – | – | – | –
COc1cc(NC(=S)Nc2ccc(NC(=O)c3csnn3)cc2)cc(OC)c1 [Example 468] | >10 | >10 | 50 | 0.06 (≈ 0.144 µM) | – | – | – | –
O=C(Nc1ccc(NC(=S)Nc2cc(Br)cc(C(F)(F)F)c2)cc1)c1csnn1 [Example 532] | >10 | 6 (≈ 11.9 µM) | – | 0.009 (≈ 0.0179 µM) | – | – | – | –
